The target in experiment [1] is T1, LXRα (Homo sapiens, UniProt Q13133).
T1 construct: expressed in transfected cells; host or cells: 293 cells
T1 sequence (Q13133 209-447 limits assumed): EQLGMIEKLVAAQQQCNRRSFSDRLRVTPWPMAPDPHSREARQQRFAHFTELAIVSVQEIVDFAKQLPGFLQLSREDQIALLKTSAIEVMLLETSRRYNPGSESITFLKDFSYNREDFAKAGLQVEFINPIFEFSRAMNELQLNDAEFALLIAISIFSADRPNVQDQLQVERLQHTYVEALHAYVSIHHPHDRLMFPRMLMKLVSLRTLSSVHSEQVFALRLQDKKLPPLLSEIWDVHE
Kind of experiment: cell-based GAL4-LXRα luciferase reporter assay. As to conditions: 293 cells with GAL4 DNA-binding domain fused to LXRα ligand-binding domain, UAS luciferase reporter; concentration producing 50% of maximal luciferase activity. The text has this: (§1) LXRα agonist activity can be characterized in a cell-based assay or a peptide-sensor assay. The same assays can be utilized to characterize LXRα antagonist activity, by evaluating the ability of a compound to block the effects of an LXRα agonist, such as 24,25-epoxycholesterol.
Briefly, for the cell-based assay, a DNA-binding domain of the nonreceptor transcription factor GAL4 was fused to the putative ligand-binding domain of LXRα. The resultant construct was introduced into 293 cells, together with UAS-containing luciferase reporter construct. The transfected cells were then treated with chemical libraries and luciferase activity was measured. Individual compounds were evaluated relative to a control (no addition of compound) and the EC50 was determined as the concentration necessary to produce 50% of the maximal luciferase activity.
On the technique in general: In a reporter assay the amount or activity of a reporter protein is the signal.

The target of experiment [2] is T2, LXRα (Homo sapiens, UniProt Q13133).
T2 sequence (Q13133 1-447): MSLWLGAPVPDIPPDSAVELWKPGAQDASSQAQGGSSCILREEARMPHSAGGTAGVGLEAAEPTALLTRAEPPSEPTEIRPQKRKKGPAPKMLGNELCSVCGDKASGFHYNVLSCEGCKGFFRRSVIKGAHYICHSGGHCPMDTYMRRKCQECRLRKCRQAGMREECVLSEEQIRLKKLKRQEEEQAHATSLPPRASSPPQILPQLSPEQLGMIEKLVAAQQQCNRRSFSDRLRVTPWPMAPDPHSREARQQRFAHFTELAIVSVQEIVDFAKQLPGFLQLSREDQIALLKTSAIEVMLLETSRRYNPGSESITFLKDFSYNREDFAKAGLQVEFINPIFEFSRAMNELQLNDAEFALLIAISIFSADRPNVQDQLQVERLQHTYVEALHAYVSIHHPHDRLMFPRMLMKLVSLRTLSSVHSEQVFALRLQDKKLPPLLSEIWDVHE
Kind of experiment: peptide sensor LXR assay (in vitro). The format is biochemical. As for the experimental part: as §1
The peptide sensor LXR assay is an in vitro assay and was conducted as generally described in co-pending applications Ser. Nos. 08/975,614 (filed Nov. 21, 1997) and 09/163,713 (filed Sep. 30, 1998).

One may read the EC50 as the concentration needed to bring the measured effect to its halfway point.

As to `O=S(=O)(Nc1ccc(C(O)(C(F)(F)F)C(F)(F)F)cc1)c1ccccc1` [Compound 2], the EC50 at LXRα [1] and at LXRα [2] was less than 2000 nM in each case.

These data come from patent US6316503A, “LXR modulators” (Tularik Inc., priority 2000, dated 2001).
